Data: patent US20260125378A2, “Heterocyclic Compounds” (BeOne Medicines I GmbH, priority 2023, published 2026)

Tests used:
[1] = molecular target: T1, Full length DGKα (D21-10BG, SignalChem) (Homo sapiens, UniProt P23743); test: Biochemical DGK IC50 assay (ADP-Glo, lipid micelle substrate), DGKα; details: 1 hour preincubation, 1 hour reaction, room temperature
T1 construct: Full length DGKα (D21-10BG, SignalChem); purchased SignalChem D21-10BG
How it was run: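 ADP-Glo luminescence quantified ADP produced after a 1 h room-temperature reaction of full-length DGKα on DAG/PS micelles, in HEPES buffer containing MgCl2, CaCl2, vanadate, BSA and Tween-20. IC50 values derive from activity inhibition over a compound concentration series.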

[2] = molecular target: T2, Full length DGKζ (in-house protein M1-V929) (Homo sapiens, UniProt Q13574); test: Biochemical DGK IC50 assay (ADP-Glo, lipid micelle substrate), DGKζ; details: 1 hour preincubation, 1 hour reaction, room temperature
T2 construct: His (N); TEV site (N); made in house; host or cells: Sf9 insect cells (Bac-to-Bac baculovirus)
T2 sequence (Q13574 1-929 isoform Q13574-4): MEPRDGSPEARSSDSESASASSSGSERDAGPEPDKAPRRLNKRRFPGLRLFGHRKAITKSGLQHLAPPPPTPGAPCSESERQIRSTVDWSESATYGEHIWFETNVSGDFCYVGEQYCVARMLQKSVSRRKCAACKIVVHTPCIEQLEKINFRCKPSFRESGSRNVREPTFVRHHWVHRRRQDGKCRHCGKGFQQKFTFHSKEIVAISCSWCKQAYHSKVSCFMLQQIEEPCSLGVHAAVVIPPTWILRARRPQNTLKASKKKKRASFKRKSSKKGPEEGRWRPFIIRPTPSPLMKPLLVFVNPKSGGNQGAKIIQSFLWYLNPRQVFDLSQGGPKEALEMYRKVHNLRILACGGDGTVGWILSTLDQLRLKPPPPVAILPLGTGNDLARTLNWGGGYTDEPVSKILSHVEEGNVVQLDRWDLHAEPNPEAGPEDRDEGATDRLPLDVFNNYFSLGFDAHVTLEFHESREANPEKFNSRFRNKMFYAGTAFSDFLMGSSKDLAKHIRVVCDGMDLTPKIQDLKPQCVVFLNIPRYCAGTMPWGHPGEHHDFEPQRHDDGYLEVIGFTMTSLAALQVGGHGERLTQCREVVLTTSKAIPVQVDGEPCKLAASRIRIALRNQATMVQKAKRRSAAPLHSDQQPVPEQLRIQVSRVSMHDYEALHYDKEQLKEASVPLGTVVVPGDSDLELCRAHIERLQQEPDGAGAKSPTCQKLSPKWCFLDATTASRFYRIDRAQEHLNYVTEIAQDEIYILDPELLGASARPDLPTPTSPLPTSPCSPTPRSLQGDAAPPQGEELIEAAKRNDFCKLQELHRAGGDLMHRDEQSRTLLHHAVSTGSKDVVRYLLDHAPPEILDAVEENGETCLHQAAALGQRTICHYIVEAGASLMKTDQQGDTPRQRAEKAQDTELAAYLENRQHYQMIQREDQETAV
How it was run: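 Enzyme: full-length human DGKζ M1-V929, produced in baculovirus-infected Sf9 cells; substrate DAG/PS micelles. Buffer 50 mM HEPES, 10 mM MgCl2, 0.01 mM CaCl2, 0.1 mM Na3VO4.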

T1 sequence (P23743 whole entry): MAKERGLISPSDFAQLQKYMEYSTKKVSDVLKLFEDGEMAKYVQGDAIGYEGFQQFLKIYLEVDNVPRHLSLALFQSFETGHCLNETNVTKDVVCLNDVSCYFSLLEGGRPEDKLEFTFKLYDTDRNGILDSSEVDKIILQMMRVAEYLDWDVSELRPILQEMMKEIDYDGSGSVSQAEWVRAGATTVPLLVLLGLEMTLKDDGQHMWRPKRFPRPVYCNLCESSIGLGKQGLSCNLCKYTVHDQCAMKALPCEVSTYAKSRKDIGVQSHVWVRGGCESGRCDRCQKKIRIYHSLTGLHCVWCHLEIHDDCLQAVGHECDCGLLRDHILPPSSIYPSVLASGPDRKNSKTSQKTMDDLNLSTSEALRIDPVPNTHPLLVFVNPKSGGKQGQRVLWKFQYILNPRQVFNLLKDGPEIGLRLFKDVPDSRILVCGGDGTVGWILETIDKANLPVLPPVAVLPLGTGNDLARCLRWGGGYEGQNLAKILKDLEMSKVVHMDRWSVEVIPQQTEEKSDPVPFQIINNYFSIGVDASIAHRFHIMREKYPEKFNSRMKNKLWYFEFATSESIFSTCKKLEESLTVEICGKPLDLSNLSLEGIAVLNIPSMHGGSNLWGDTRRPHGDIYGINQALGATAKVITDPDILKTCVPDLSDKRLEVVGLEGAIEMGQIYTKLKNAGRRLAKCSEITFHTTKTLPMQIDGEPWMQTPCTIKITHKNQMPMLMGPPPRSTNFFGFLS

| SMILES | IC50 [1] [µM] | IC50 [2] [µM] |
| --- | --- | --- |
| CCn1c(CC#N)nc2c(N3C[C@@H](C)N(C(C)c4ccc5c(n4)OC(C)(C)CO5)C[C@@H]3C)nc(=O)n(C)c21 (single isomer, unassigned) [Compound A74b] | > 150 | 4.87 |
| Cc1ccc(C(C)N2C[C@H](C)N(c3cc(=O)n(C)c4c3nc(CC#N)n4C)C[C@H]2C)c(C(F)(F)F)c1 (single isomer, unassigned) [Compound A8a] | > 10 | 1.48 |
| CCn1c(CC#N)nc2c(N3C[C@@H](C)N(C(C)c4cc(F)c5c(n4)OC(C)(C)CO5)C[C@@H]3C)nc(=O)n(C)c21 (single isomer, unassigned) [Compound A163b] | > 150 | 2.07 |
| COc1cc(F)ccc1C(C)N1C[C@H](C)N(c2cc(=O)n(C)c3c2nc(CC#N)n3C)C[C@H]1C (single isomer, unassigned) [Compound A4a] | > 10 | 0.566 |
| CCn1c(CC#N)nc2c(N3C[C@@H](C)N(C(C)c4ccc(F)c(C(F)F)c4)C[C@@H]3C)nc(=O)n(C)c21 (stereo partly drawn) [Compound A112, 2-(6-((2S,5R)-4-(1-(3-(difluoromethyl)-4-fluorophenyl)ethyl)-2,5-dimethylpiperazin-1-yl)-9-ethyl-3-methyl-2-oxo-3,9-dihydro-2H-purin-8-yl)acetonitrile] | > 150 | 0.035 |
| CCn1c(CC#N)nc2c(N3C[C@@H](C)N(C(C)c4nc5c(cc4F)OCC(C)(C)O5)C[C@@H]3C)nc(=O)n(C)c21 (mixture of isomers) [Compound A161, 2-(9-ethyl-6-((2S,5R)-4-(1-(7-fluoro-3,3-dimethyl-2,3-dihydro-[1,4]dioxino[2,3-b]pyridin-6-yl)ethyl)-2,5-dimethylpiperazin-1-yl)-3-methyl-2-oxo-3,9-dihydro-2H-purin-8-yl)acetonitrile] | > 150 | 0.081 |
| CC(c1ccc2nccnc2c1)N1C[C@H](C)N(c2cc(=O)n(C)c3c2nc(CC#N)n3C)C[C@H]1C (single isomer, unassigned) [Compound A1b] | > 10 | 2.35 |

Continued, values first:

| IC50 [1] [µM] | IC50 [2] [µM] | SMILES |
| --- | --- | --- |
| > 10 | 0.749 | Cc1ccc(C(C)N2C[C@H](C)N(c3cc(=O)n(C)c4sc(CC#N)nc34)C[C@H]2C)c(C(F)(F)F)c1 (stereo partly drawn) [Compound A196, 2-(7-((2S,5R)-2,5-dimethyl-4-(1-(4-methyl-2-(trifluoromethyl)phenyl)ethyl)piperazin-1-yl)-4-methyl-5-oxo-4,5-dihydrothiazolo[5,4-b]pyridin-2-yl)acetonitrile] |
| 82.5 | 0.02 | CCn1c(CC#N)nc2c(N3C[C@@H](C)N(C(C)c4ccc(F)c5c4OC(C)(C)O5)C[C@@H]3C)nc(=O)n(C)c21 (single isomer, unassigned) [Compound A185b] |
| 43.8 | 0.007 | CC(c1cc(F)c2c(c1)OC(C)(C)CO2)N1C[C@H](C)N(c2nc(=O)n(C)c3c2nc(CC#N)n3C)C[C@H]1C (mixture of isomers) [Compound A68, 2-(6-((2S,5R)-4-(1-(8-fluoro-3,3-dimethyl-2,3-dihydrobenzo[b][1,4]dioxin-6-yl)ethyl)-2,5-dimethylpiperazin-1-yl)-3,9-dimethyl-2-oxo-3,9-dihydro-2H-purin-8-yl)acetonitrile] |
| 30.6 | 0.069 | CCn1c(CC#N)nc2c(N3C[C@@H](C)N(C(C)c4cc5c(cc4F)OC(C)(C)O5)C[C@@H]3C)nc(=O)n(C)c21 (single isomer, unassigned) [Compound A174b] |
| 6.94 | 0.082 | CC(c1ccc2c(c1)OC(C)(C)CO2)N1C[C@H](C)N(c2c(F)c(=O)n(C)c3c2nc(CC#N)n3C)C[C@H]1C (single isomer, unassigned) [Compound A19b] |
| 1.58 | 0.409 | Cc1cccc(C(C)N2C[C@H](C)N(c3c(F)c(=O)n(C)c4c3nc(CC#N)n4C)C[C@H]2C)c1C(F)(F)F (single isomer, unassigned) [Compound A17b] |
| 16.2 | 0.094 | Cc1cnc2ccc(C(C)N3C[C@H](C)N(c4c(F)c(=O)n(C)c5c4nc(CC#N)n5C)C[C@H]3C)cc2n1 (single isomer, unassigned) [Compound A23b] |
